# Experimental data from patent publication US11747325B2, “Bleomycin for mimicking the effect of ionizing radiations on T cells” (Novagray, priority 2018, dated 2023).
# What was measured:
# [1] = tested on: T lymphocytes; experiment: Bleomycin-induced CD8 T-lymphocyte apoptosis, treatment from the start of blood cell culture (at least 50 hours contact), flow cytometry; type: cell-based, human; conditions: for T lymphocytes apoptosis rate, from the start of cell culture: same blood sample, 8 Gy irradiation control 28.2%
# Procedure: (§1) Blood samples were purchased from Etablissement Français du Sang (EFS) with the convention number 21PLER2016-0100 AV01. Blood samples were collected from healthy donors in 5 mL heparinized tubes without separation gel.
# (§2) Blood cells were grown in RPMI-1640 with glutamax (Fisher scientific, France) supplemented with 20% fetal calf serum (FCS) (EuroBio, France). Cells were maintained at 37° C. with 5% CO2 during the experiments.
# (§3) Bleomycin (EuroMedex) was solubilized in sterile MilliQ water at 50 mg/mL according to manufacturer instructions and stored at −80° C.
# (§4) Samples were then centrifuged for 5 min at 300 g. The pellets were resuspended in phosphate-buffered saline (PBS) containing 10 μl of anti-human CD8-FITC antibody (Becton Dickinson, USA) and incubated for 20 minutes at room temperature. Then, red blood cells were lysed by addition of 4 ml of lysis buffer diluted 1:10 in water (Becton Dickinson, USA). After another 20 minutes incubation time at room temperature, samples were centrifuged for 5 min at 300 g and the pellets were washed with 3 ml of PBS. Pellets were suspended in 200 μl of PBS containing 25 μg/ml of propidium iodide (Sigma, France) and 5 μl of RNAse A at 10 mg/ml (Qiagen, France). The samples were analyzed by flow cytometry within the next hours, using the CytoFlex (Beckman Coulter, USA). […]
# Two hundred microliters of blood were aliquoted into a 6-well plate containing 2 mL of RPMI-20% FCS-bleomycin, about 24 hours after blood collection. The cell culture media containing the different concentrations of bleomycin were made fresh just before starting the cell culture. After bleomycin incubation with blood cells for at least 50 hours (generally more than about 60 hours, in particular between 65 and 75 hours), samples were stained for flow cytometry analysis as described above.
# (§5) Two treatment conditions were tested on the same blood sample: blood cells were treated by several bleomycin concentrations 24 hours after cell culture or from the start of cell culture. A control experiment was performed by irradiating blood samples at 8 Gy.
# [2] = tested on: T lymphocytes; experiment: Bleomycin-induced CD8 T-lymphocyte apoptosis, treatment 24 hours after blood cell culture (less than 50 hours contact), flow cytometry; type: cell-based, human; conditions: for T lymphocytes apoptosis rate, 24 hours after cell culture: staining 48 hours after treatment, same blood sample, 8 Gy control 28.2%
# Procedure: as §1, §2, §3, §4
# Two hundred microliters of blood were aliquoted into a 6-well plate containing 2 mL of RPMI-20% FCS, about 24 hours after blood collection. Bleomycin treatment, at the different concentrations, was performed 24 hours after blood cell culture by adding the Bleomycin directly into the wells. The staining for detecting apoptosis was performed as described above and 48 hours after the bleomycin treatment (thus, after less than 50 hours of contact of bleomycin with the cells). • Treatment during blood cell culture:
# as §5
substance,measurement,setting,value
Bleomycin,"T lymphocytes apoptosis rate, from the start of cell culture",[1]; bleomycin 50 μg/mL,12.47%
same,"T lymphocytes apoptosis rate, from the start of cell culture",[1]; bleomycin 100 μg/ml,19.14%
same,"T lymphocytes apoptosis rate, from the start of cell culture",[1]; bleomycin 200 μg/ml,23.44%
same,"T lymphocytes apoptosis rate, from the start of cell culture",[1]; bleomycin 300 μg/ml,26.32%
same,"T lymphocytes apoptosis rate, from the start of cell culture",[1]; bleomycin 400 μg/ml,30.68%
same,Bleomycin concentration achieving the apoptosis rate obtained after 8 Gy irradiation,[1]; treatment applied at the start of blood cell culture,lower than 300 μg/ml
same,"T lymphocytes apoptosis rate, 24 hours after cell culture",[2]; bleomycin 50 μg/mL,3.98%
same,"T lymphocytes apoptosis rate, 24 hours after cell culture",[2]; bleomycin 100 μg/ml,2.72%
same,"T lymphocytes apoptosis rate, 24 hours after cell culture",[2]; bleomycin 200 μg/ml,10.13%
same,"T lymphocytes apoptosis rate, 24 hours after cell culture",[2]; bleomycin 300 μg/ml,11.9%
same,"T lymphocytes apoptosis rate, 24 hours after cell culture",[2]; bleomycin 400 μg/ml,16.78%
same,Whether the apoptosis rate observed after 8 Gy irradiation is induced,"[2]; treatment 24 hours after blood cell culture, applied for less than 50 hours, 50 to 500 μg/mL","no bleomycin concentration, applied for less than 50 hours, induces the apoptosis rate observed after 8 Gy irradiation"
